This note sets out measurements from ChEMBL document CHEMBL1151593, “Synthesis and nti-tubulin activity of aza-combretastatins” (Bioorg Med Chem Lett, 1994).

A value given as a limit tells only on which side of the number the result lay.

The target in the assay is Tubulin alpha chain (Sus scrofa, UniProt P02550). The assay is described as follows: Evaluated for the inhibitory concentration against porcine brain tubulin polymerization. In kind it is functional.
Chain of Tubulin alpha chain (P02550 whole entry, looked up): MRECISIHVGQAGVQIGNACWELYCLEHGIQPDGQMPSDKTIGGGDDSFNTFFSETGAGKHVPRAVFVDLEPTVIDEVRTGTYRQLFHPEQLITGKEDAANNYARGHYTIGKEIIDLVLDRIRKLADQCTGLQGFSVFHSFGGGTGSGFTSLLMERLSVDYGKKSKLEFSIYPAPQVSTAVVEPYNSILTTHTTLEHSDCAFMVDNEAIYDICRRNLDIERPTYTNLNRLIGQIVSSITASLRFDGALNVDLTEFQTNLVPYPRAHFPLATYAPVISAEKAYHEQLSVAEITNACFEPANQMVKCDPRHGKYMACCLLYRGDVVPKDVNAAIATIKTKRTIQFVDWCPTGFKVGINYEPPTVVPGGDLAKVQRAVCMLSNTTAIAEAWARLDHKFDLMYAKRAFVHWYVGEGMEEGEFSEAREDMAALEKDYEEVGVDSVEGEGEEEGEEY
As usually defined, the IC50 is the concentration that inhibits the measured activity by half. Read a high IC50 as lower potency. As for `COc1ccc(N(Cc2cc(OC)c(OC)c(OC)c2)C(C)=O)cc1O`, the IC50 is more than 100 µM.
To `COc1ccc(CNc2cc(OC)c(OC)c(OC)c2)cc1O` belongs 100 µM; to `CCCCN(Cc1cc(OC)c(OC)c(OC)c1)c1ccc(OC)c(O)c1`, 7.5 µM; to `COc1ccc(N(C)C(=O)c2cc(OC)c(OC)c(OC)c2)cc1O`, more than 100 µM.
To `CCN(Cc1cc(OC)c(OC)c(OC)c1)c1ccc(OC)c(O)c1` belongs 15 µM; to `COc1ccc(N(C)Cc2cc(OC)c(OC)c(OC)c2)cc1O`, 45 µM.
To `COc1ccc(CN(C)c2cc(OC)c(OC)c(OC)c2)cc1O` belongs 100 µM.
In the case of `COc1ccc(C(=O)N(C)c2cc(OC)c(OC)c(OC)c2)cc1O`, the IC50 was more than 100 µM.
To `COc1ccc(C(=O)Nc2cc(OC)c(OC)c(OC)c2)cc1O` belongs more than 100 µM; to `CCC(=O)N(Cc1cc(OC)c(OC)c(OC)c1)c1ccc(OC)c(O)c1`, more than 100 µM; to `CCCN(Cc1cc(OC)c(OC)c(OC)c1)c1ccc(OC)c(O)c1`, 5.4 µM.
For `COc1ccc(N(CCCCCO)Cc2cc(OC)c(OC)c(OC)c2)cc1O` the value was 20 µM.
For `CCCCCCN(Cc1cc(OC)c(OC)c(OC)c1)c1ccc(OC)c(O)c1` the value was 20 µM.
`CCCCCN(Cc1cc(OC)c(OC)c(OC)c1)c1ccc(OC)c(O)c1` had an IC50 of 20 µM.
For `COc1ccc(NC(=O)c2cc(OC)c(OC)c(OC)c2)cc1O` the value was more than 100 µM; for `COc1ccc(NCc2cc(OC)c(OC)c(OC)c2)cc1O`, 100 µM; for `COc1ccc(N(CCCC(=O)O)Cc2cc(OC)c(OC)c(OC)c2)cc1O`, 40 µM.
